In patent EP2125859B1, “ESTRATRIENE DERIVATIVES AND THEIR USES AS 17BETA-HYDROXYSTEROID DEHYDROGENASE INHIBITORS” (Abbott Products GmbH, priority 2006, dated 2008) one finds inhibition data, which are given here for 10 compounds.

In one assay the target is T1, 17β-HSD3 (Homo sapiens, UniProt P37058).
T1 construct: expressed in transfected cells; host or cells: MCF-7 cells stably expressing 17β-HSD3
T1 sequence (P37058 1-310): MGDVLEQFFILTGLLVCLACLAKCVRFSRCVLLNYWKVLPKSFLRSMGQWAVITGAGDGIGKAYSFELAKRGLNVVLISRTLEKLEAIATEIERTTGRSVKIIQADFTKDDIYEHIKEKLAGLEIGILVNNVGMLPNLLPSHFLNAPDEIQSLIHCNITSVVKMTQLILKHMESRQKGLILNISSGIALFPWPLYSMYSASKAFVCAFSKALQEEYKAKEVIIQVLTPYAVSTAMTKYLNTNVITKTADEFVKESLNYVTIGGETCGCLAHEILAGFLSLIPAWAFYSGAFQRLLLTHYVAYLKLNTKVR
Description: Inhibition of 17β-HSD3 in MCF-7 cell lines stably expressing the enzyme (HPLC, tritium labeled androstenedione). The conditions noted are these: MCF7, MCF-7 cells expressing 17β-HSD3, androstenedione 2 nM. The class given is cell-based. The protocol: The compounds were screened in respect of 17β-HSD3 enzyme activity in vitro on established MCF-7 cell lines, each stably expressing the 17β-HSD3 enzyme. The interconversion of substrate by 17β-HSD3 and the 17β-HSD3 inhibiting activity of chemical compounds in these cell lines were detected by HPLC system.
Varying amounts of the test compounds were incubated in the growth medium of the 17β-HSD3 expressing cells together tritium labeled androstenedione (2 nM). The medium samples were removed after exact incubation time and the reaction is stopped by trichloroacetic acid (TCA). The samples were analyzed by HPLC-coupled flow scintillation analysis.
Conversion: The 17β-HSD3 inhibiting activity of an individual test compound was calculated by comparing the conversion of a control sample without any test compound (referred to as "Negative Control") to the (reduced) conversion of the test sample containing the particular compound to be tested (referred to as "Test Sample"). [formula]
Two concentrations of each compound were used. The number of the compound refers to the numbers indicated in the Experimental Section.
The values "% inhibition" were determined for exemplified compounds, and the results are summarized in table 5 (HSD 3). table 5: 17β-HSD3 inhibition values in % of selected compounds of formula I

The target in assay [1] is T2, recombinant human 17β-HSD1 (Homo sapiens, UniProt P14061).
T2 construct: made in house; host or cells: Sf9 insect cells (baculovirus, Bac to Bac Expression System)
T2 sequence (P14061 1-328): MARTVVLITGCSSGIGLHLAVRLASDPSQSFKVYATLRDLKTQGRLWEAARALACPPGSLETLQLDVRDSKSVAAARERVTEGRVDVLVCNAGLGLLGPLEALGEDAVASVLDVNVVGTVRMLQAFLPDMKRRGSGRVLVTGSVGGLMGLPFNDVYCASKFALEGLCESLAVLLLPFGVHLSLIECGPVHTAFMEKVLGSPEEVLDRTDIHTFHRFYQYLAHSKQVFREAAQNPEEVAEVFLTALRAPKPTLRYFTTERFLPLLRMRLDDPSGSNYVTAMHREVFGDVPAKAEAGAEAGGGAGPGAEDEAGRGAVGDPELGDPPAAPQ
In words: Inhibition of recombinant human 17β-HSD1 (HPLC assay, conversion of 3H-estrone to estradiol). It is filed as biochemical. The note with it: 0.5 h, 30 nM 3H-estrone, 1 mM NADPH, 30 min at RT, read-out: inhibition of rec. 17β-HSD1; for inhibition at 0.1 µM: 100 nM inhibitor; for inhibition at 1 µM: 1 µM inhibitor. As for the experimental part:
Inhibition of the 17β-hydroxysteroid dehydrogenase type 1 enzyme 17β-HSD1 purification: Recombinant baculovirus was generated by the "Bac to Bac Expression System" (Invitrogen). Recombinant bacmid was transfected to Sf9 insect cells using "Cellfectin Reagent" (Invitrogen). 60h later cells were harvested; the microsomal fraction was isolated as described by Puranen et al. (1994). Aliquots were stored frozen until determination of enzymatic activity.
Assay - Inhibition of recombinant human 17β-HSD1: Recombinant protein (0.1 µg/ml) was incubated in 20 mM KH2PO4 pH 7.4 with 30 nM 3H-estrone and 1 mM NADPH for 30 min at RT, in the presence of potential inhibitors at concentrations of 1 µM or 0.1 µM. Inhibitor stock solutions were prepared in DMSO. Final concentration of DMSO was adjusted to 1 % in all samples. The enzyme reaction was stopped by addition of 10 % trichloroacetic acid (final concentration). Samples were centrifuged in a microtiter plate at 4000 rpm for 10 min. Supernatants were applied to reverse phase HPLC on a Waters Symmetry C18 column, equipped with a Waters Sentry Guard column. Isocratic HPLC runs were performed at RT at a flow rate of 1 ml/min of acetonitrile:water 48:52 as running solvent. Radioactivity was monitored in the eluate by a Packard Flow Scintillation Analyzer. Total radioactivity for estrone and estradiol were determined in each sample and percent conversion of estrone to estradiol was calculated according to the following formula: [formula] [formula]
The values "% inhibition" were determined for exemplified compounds, and the results are summarized in table 4 (for 17β-HSD1). table 4: HSD 1 inhibition values in % of selected compounds of formula I

As a reminder, the inhibition is the relative decrease from the control value, in per cent.

SMILES strings stand for the structures.

For the compound `C[C@]12CC[C@@H]3c4ccc(O)cc4CC[C@H]3[C@@H]1[C@H](CCn1cc(CC3CCCCC3)nn1)CC2=O` [Compound 6, 3-Hydroxy-15β-[2-(4-cyclohexylmethyl-[1,2,3]triazol-1-yl)-ethyl]-estra-1,3,5(10)-trien-17-one], on 17β-HSD3, testing at 1 µM gave an inhibition of 16% and at 10 µM the inhibition was 50%. In assay [1], the inhibition at 0.1 µM was found to be 92% and the inhibition at 1 µM amounted to 94%.

Take `CC(C)CCc1cn(CCC[C@@H]2CC(=O)[C@@]3(C)CC[C@@H]4c5ccc(O)cc5CC[C@H]4[C@H]23)nn1` [Compound 17, 3-Hydroxy-15β-{3-[4-(3-methyl-butyl)-[1,2,3]triazol-1-yl]-propyl}-estra-1,3,5(10)-trien-17-one]: on 17β-HSD3, the inhibition at 1 µM amounted to 3% and the inhibition at 10 µM was determined as 50%. Further, in assay [1], the inhibition at 0.1 µM was determined as 61% and the inhibition at 1 µM amounted to 88%.

At 17β-HSD3, `CC(C)Cc1cn(CCC[C@@H]2CC(=O)[C@@]3(C)CC[C@@H]4c5ccc(O)cc5CC[C@H]4[C@H]23)nn1` [Compound 24, 3-Hydroxy-15β-[3-(4-iso-butyl-[1,2,3]triazol-1-yl)-propyl]-estra-1,3,5(10)-trien-17-one] gave an inhibition at 1 µM of 24% and an inhibition at 10 µM of 64%. For the same compound, in assay [1], the inhibition at 0.1 µM is 52% and the inhibition at 1 µM came out at 85%.

At 17β-HSD3, `C[C@]12CC[C@@H]3c4ccc(O)cc4CC[C@H]3[C@@H]1[C@H](CCn1cc(-c3ccccc3C(F)(F)F)nn1)CC2=O` [Compound 19, 3-Hydroxy-15β-{2-[4-(2-trifluoromethyl-phenyl)-[1,2,3]triazol-1-yl]-ethyl}-estra-1,3,5(10)-trien-17-one] returned an inhibition at 1 µM of 11% and an inhibition at 10 µM of 52%. Further, in assay [1], the inhibition at 0.1 µM came out at 71% and the inhibition at 1 µM is 87%.

On to `CC(C)CCc1cn(CC[C@@H]2CC(=O)[C@@]3(C)CC[C@@H]4c5ccc(O)cc5CC[C@H]4[C@H]23)nn1` [Compound 4, 3-Hydroxy-15β-{2-[4-(3-methyl-butyl)-[1,2,3]triazol-1-yl]-ethyl}-estra-1,3,5(10)-trien-17-one], for which, on 17β-HSD3, at 1 µM the inhibition was 5% and the inhibition at 10 µM stood at 40%. Moreover, in assay [1], the inhibition at 0.1 µM amounted to 92% and the inhibition at 1 µM worked out at 96%.

In turn, `CC(C)Cc1cn(CC[C@@H]2CC(=O)[C@@]3(C)CC[C@@H]4c5ccc(O)cc5CC[C@H]4[C@H]23)nn1` [Compound 12, 3-Hydroxy-15β-[2-(4-iso-butyl-[1,2,3]triazol-1-yl)-ethyl]-estra-1,3,5(10)-trien-17-one] registered an inhibition at 10 µM against 17β-HSD3 of 37%. Also, in assay [1], the inhibition at 0.1 µM was found to be 86% and the inhibition at 1 µM came to 92%.

On to `C[C@]12CC[C@@H]3c4ccc(O)cc4CC[C@H]3[C@@H]1[C@H](CCCc1cn(-c3ccc(F)cc3F)nn1)CC2=O` [Compound 301, 15β-{3-[1-(2,4-difluorophenyl)-1H-1,2,3-triazol-4-yl]propyl}-3-hydroxyestra-1(10),2,4-trien-17-one], for which, on 17β-HSD3, the inhibition at 1 µM stood at 24% and the inhibition at 10 µM was 57%. In assay [1], the inhibition at 0.1 µM came out at 82% and the inhibition at 1 µM turned out to be 88%.

On 17β-HSD3, `C[C@]12CC[C@@H]3c4ccc(O)cc4CC[C@H]3[C@@H]1[C@H](CCCc1cn(-c3ccc(F)cc3F)nn1)CC2(F)F` [Compound 302, 15-{3-[1-(2,4-difluorophenyl)-1H-1,2,3-triazol-4-yl]propyl}-17,17-difluoroestra-1(10),2,4-trien-3-ol] yielded an inhibition at 1 µM of 13% and an inhibition at 10 µM of 70%. In assay [1], the inhibition at 0.1 µM came to 88% and the inhibition at 1 µM worked out at 96%.

With `C[C@]12CC[C@@H]3c4ccc(O)cc4CC[C@H]3[C@@H]1[C@H](CCCn1cc(CCc3ccccc3)nn1)CC2=O` [Compound 8, 3-Hydroxy-15β-[3-(4-phenethyl-[1,2,3]triazol-1-yl)-propyl]-estra-1,3,5(10)-trien-17-one], on 17β-HSD3, the inhibition at 1 µM is 6% and the inhibition at 10 µM turned out to be 61%. Further, in assay [1], the inhibition at 0.1 µM was found to be 81% and the inhibition at 1 µM was found to be 93%.

For the compound `C[C@]12CC[C@@H]3c4ccc(O)cc4CC[C@H]3[C@@H]1[C@@H](CCCn1cc(-c3cccc(O)c3)nn1)CC2=O` [Compound 22, 3-Hydroxy-15-[3-(4-m-hydroxyphenyl-[1,2,3]triazol-1-yl)-propyl]-13-methyl-6,7,8,9,11,12,13,14,15,16-decahydro-cyclopenta[a]phenanthren-17-one], the inhibition at 1 µM was 82% on 17β-HSD3 and 86% in assay [1]. The inhibition at 0.1 µM in assay [1] amounted to 48%.
